For 37 compounds, melting point and IC50 results are on record in patent US7365200B2, “Thienopyridinone derivatives as macrophage migration inhibitory factor inhibitors” (Avanir Pharmaceuticals, priority 2005, dated 2008).

The structures appear in SMILES notation.

Test system in the first data set: not given
Experiment: not given
Details: not given
For the compound `N#Cc1c(N2CCN(C(=O)c3cccs3)CC2)c2cscc2n(Cc2ccc(F)cc2)c1=O` [Compound 49, 4-(4-fluoro-benzyl)-5-oxo-7-[4-(thiophene-2-carbonyl)-piperazin-1-yl]-4,5-dihydro-2-thia-4-aza-indene-6-carbonitrile], the melting point was 238 °C. Same read-out and setting: next, `CCOC(=O)c1c(N2CCN(C(=O)c3cccs3)CC2)c2sccc2n(CC(=O)c2ccccc2)c1=O` [Compound 7, 5-oxo-4-(2-oxo-2-phenyl-ethyl)-7-[4-(thiophene-2-carbonyl)-piperazin-1-yl]4,5-dihydro-thieno[3,2-b]pyridine-6-carboxylic acid ethyl ester]: 240 °C; `N#Cc1c(N2CCN(C(=O)c3cccs3)CC2)c2sccc2n(CC(=O)c2ccccc2)c1=O` [Compound 30, 5-oxo-4-(2-oxo-2-phenyl-ethyl)-7-[4-(thiophene-2-carbonyl)-piperazin-1-yl]-4,5-dihydro-thieno[3,2-b]pyridine-6-carbonitrile]: 300 °C. Still for that read-out and setting: next, `CCOC(=O)c1c(N2CCN(C(=O)c3cccs3)CC2)c2sccc2n(Cc2cccc(F)c2)c1=O` [Compound 9, 4-(3-fluoro-benzyl)-5-oxo-7-[4-(thiophene-2-carbonyl)-piperazin-1-yl]-4,5-dihydro-thieno[3,2-b]pyridine-6-carboxylic acid ethyl ester]: 95 to 113 °C; `N#Cc1c(N2CCN(C(=O)c3cccs3)CC2)c2sccc2n(Cc2ccc(F)cc2)c1=O` [Compound 28, 4-(4-fluoro-benzyl)-5-oxo-7-[4-(thiophene-2-carbonyl)-piperazin-1-yl]-4,5-dihydro-thieno[3,2-b]pyridine-6-carbonitrile]: 286 °C; `N#Cc1c(N2CCN(C(=O)c3cccs3)CC2)c2cscc2n(CC(=O)c2ccccc2)c1=O` [Compound 48, 5-oxo-4-(2-oxo-2-phenyl-ethyl)-7-[4-(thiophene-2-carbonyl)-piperazin-1-yl]-4,5-dihydro-2-thia-4-aza-indene-6-carbonitrile]: 308 °C.

Consider `CCOC(=O)c1c(N2CCN(C(=O)c3ccco3)CC2)c2sccc2n(CC(=O)c2ccccc2)c1=O` [Compound 13, 7-[4-(furan-2-carbonyl)-piperazin-1-yl]-5-oxo-4-(2-oxo-2-phenyl-ethyl)-4,5-dihydro-thieno[3,2-b]pyridine-6-carboxylic acid ethyl ester], for which the melting point is 246 °C.

The compound `N#Cc1c(N2CCN(C(=O)c3cccs3)CC2)c2cscc2n(-c2cccnc2)c1=O` [Compound 52, 5-oxo-4-pyridine-3-yl-7-[4-(thiophene-2-carbonyl)-piperazin-1-yl]-4,5-dihydro-2-thia-4-aza-indene-6-carbonitrile] displayed a melting point of 282 °C.

Compound `CCOC(=O)c1c(N2CCN(C(=O)c3cccs3)CC2)c2cscc2n(Cc2ccc(F)cc2)c1=O` [Compound 42, 4-(4-fluoro-benzyl)-5-oxo-7-[4-(thiophene-2-carbonyl)-piperazin-1-yl]-4,5-dihydro-2-thia-4-aza-indene-6-carboxylic acid ethyl ester] gave a melting point of 227 °C. Regarding `Cc1csc2c1c(N1CCN(C(=O)c3cccs3)CC1)c(C#N)c(=O)n2Cc1ccccc1` [Compound 67, 7-benzyl-3-methyl-6-oxo-4-[4-(thiophene-2-carbonyl)-piperazin-1-yl]-6,7-dihydro-thieno[2,3-b]pyridine-5-carbonitrile], the melting point worked out at 223 °C.

`COC(=O)c1ccc(Cn2c(=O)c(C#N)c(N3CCN(C(=O)c4cccs4)CC3)c3cscc32)cc1` [Compound 50, 4-{6-cyano-5-oxo-7-[4-(thiophene-2-carbonyl)-piperazin-1-yl]-5H-2-thia-4-aza-indene-4-ylmethyl}-benzoic acid methyl ester]: the melting point came to 263 °C.

A further data set deals with T1, MIF produced by THP-1 cells (Homo sapiens, UniProt P14174).
T1 construct: THP-1 cell supernatant was collected and incubated with a candidate compound; endogenous in cells; host or cells: THP-1 cells, LPS-stimulated, culture supernatant
T1 sequence (P14174 2-115 limits assumed): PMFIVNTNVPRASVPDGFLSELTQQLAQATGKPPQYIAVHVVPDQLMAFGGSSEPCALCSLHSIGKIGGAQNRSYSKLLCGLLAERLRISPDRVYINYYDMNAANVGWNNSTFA
Kind of data set: Antibody binding assay of MIF inhibitors (ELISA, 96-well format). The note with it: LPS-stimulated THP-1 cell supernatant incubated with compound; MIF monoclonal antibody capture ELISA; read-out: In vitro MIF IC50. On the procedure: An antibody binding assay for MIF inhibitors was performed on selected compounds in a 96-well format using MIF produced by THP-1 cells. The THP-1 cells were washed once with 250 μl of 0.1 M sodium carbonate, pH 11.4, for 1 to 2 minutes and immediately aspirated. The THP-1 cells were then washed with media containing 0.5% FBS plus 25 μg/ml heparin and then incubated in this same medium for the indicated lengths of time. The THP-1 cells were resuspended to approx. 5×10^6 cells/ml in RPMI medium containing 20 μg/ml of bacterial LPS and incubated for 18-20 hours, after which THP-1 cell supernatant was collected and incubated with a candidate compound. A 96-well ELISA plate (Costar Number 3590) was coated with a MIF monoclonal antibody (R&D Systems Catalog Number MAB289) at a concentration of 4 μg/ml for two hours at 37° C. Undiluted THP-1 cell culture supernatant incubated with the candidate compound was added to the ELISA plate for a two-hour incubation at room temperature. The wells were then washed, a biotinylated MIF polyclonal antibody (R&D Systems #AF-289-PB) was added followed by Streptavidin-HRP and a chromogenic substrate. The amount of MIF was calculated by interpolation from an MIF standard curve.
With `CCOC(=O)c1c(N2CCN(C(=O)c3cccs3)CC2)c2ccsc2n(Cc2ccccc2)c1=O` [Compound 114], the IC50 was determined as 70 nM. On the same count and under the same terms, next, `CCOC(=O)c1c(N2CCN(C(=O)c3cccs3)CC2)c2sccc2n(CC(=O)c2ccccc2)c1=O` [Compound 120]: 799 nM. On the same count and under the same terms, next, `CCOC(=O)c1c(N2CCN(C(=O)c3cccs3)CC2)c2cscc2n(Cc2ccc(C(=O)OC)cc2)c1=O` [Compound 107]: 35 nM; `N#Cc1c(N2CCN(C(=O)c3cccs3)CC2)c2sccc2n(Cc2ccc(F)cc2)c1=O` [Compound 113]: 419 nM; `N#Cc1c(N2CCN(C(=O)c3cccs3)CC2)c2cscc2n(Cc2ccc(F)cc2)c1=O` [Compound 102]: 82 nM. The same measure, in the same setting: next, `N#Cc1c(N2CCN(C(=O)c3cccs3)CC2)c2sccc2n(Cc2cccnc2)c1=O` [Compound 111]: 254 nM; `COC(=O)c1ccc(Cn2c(=O)c(C#N)c(N3CCN(C(=O)c4cccs4)CC3)c3cscc32)cc1` [Compound 103]: 437 nM; `CCOC(=O)c1c(N2CCN(C(=O)c3ccco3)CC2)c2sccc2n(CC(=O)c2ccccc2)c1=O` [Compound 123]: 8770 nM.

For `N#Cc1c(N2CCN(C(=O)c3cccs3)CC2)c2sccc2n(Cc2cccc(F)c2)c1=O` [Compound 112], the IC50 amounted to 595 nM.

Consider `CC(C)OC(=O)c1c(N2CCN(C(=O)c3cccs3)CC2)c2sccc2n(Cc2cccc(F)c2)c1=O` [Compound 125], for which the IC50 was 387 nM. Still for that read-out and setting: as for `N#Cc1c(N2CCN(C(=O)c3cccs3)CC2)c2ccsc2n(Cc2ccccc2)c1=O` [Compound 116], the figure is 139 nM. Same read-out and setting: as for `CCOC(=O)c1c(N2CCN(C(=O)c3cccs3)CC2)c2sccc2n(Cc2cccnc2)c1=O` [Compound 124], the figure is 269 nM. The same measure, in the same setting: as for `Cc1csc2c1c(N1CCN(C(=O)c3cccs3)CC1)c(C#N)c(=O)n2Cc1ccccc1` [Compound 117], the figure is 12300 nM. As to `CCOC(=O)c1c(N2CCN(C(=O)c3ccco3)CC2)c2sccc2n(Cc2ccc(F)cc2)c1=O` [Compound 119], the IC50 worked out at 4150 nM. In the case of `CCOC(=O)c1c(N2CCN(C(=O)c3ccco3)CC2)c2sccc2n(Cc2cccc(F)c2)c1=O` [Compound 122], the IC50 was found to be 5840 nM. Same read-out and setting: as for `CCOC(=O)c1c(N2CCN(C(=O)c3cccs3)CC2)c2c(C)csc2n(Cc2ccccc2)c1=O` [Compound 115], the figure is 11800 nM. Same read-out and setting: next, `N#Cc1c(N2CCN(C(=O)c3cccs3)CC2)c2cscc2n(-c2cccnc2)c1=O` [Compound 108]: 171 nM. For the compound `CCOC(=O)c1c(N2CCN(C(=O)c3cccs3)CC2)c2sccc2n(Cc2cccc(F)c2)c1=O` [Compound 121], the IC50 worked out at 146 nM. The same measure, in the same setting: as for `N#Cc1c(N2CCN(C(=O)c3cccs3)CC2)c2cscc2n(Cc2cccnc2)c1=O` [Compound 104], the figure is 59 nM; as for `CCOC(=O)c1c(N2CCN(C(=O)c3ccc(F)s3)CC2)c2sccc2n(Cc2cccc(F)c2)c1=O` [Compound 126], 648 nM; as for `N#Cc1c(N2CCN(C(=O)c3cccs3)CC2)c2sccc2n(CC(=O)c2ccccc2)c1=O` [Compound 110], 1730 nM. Same read-out and setting: next, `CCOC(=O)c1c(N2CCN(C(=O)c3cccs3)CC2)c2sccc2n(Cc2ccc(F)cc2)c1=O` [Compound 109]: 233 nM. In the case of `CCOC(=O)c1c(N2CCN(C(=O)c3cccs3)CC2)c2cscc2n(Cc2ccc(F)cc2)c1=O` [Compound 106], the concentration for half-maximal inhibition (IC50) came to 40 nM. In the case of `CCOC(=O)c1c(N2CCN(C(=O)c3cccs3)CC2)c2cc(C)sc2n(Cc2cccc(F)c2)c1=O` [Compound 127], the 50% inhibitory concentration (IC50) was found to be 32 nM.

As for `CCOC(=O)c1c(N2CCN(C(=O)c3cccs3)CC2)c2cscc2n(CC(=O)c2ccccc2)c1=O` [Compound 105], the 50% inhibitory concentration (IC50) stood at 53 nM. The same measure, in the same setting: as for `N#Cc1c(N2CCN(C(=O)c3cccs3)CC2)c2cscc2n(CC(=O)c2ccccc2)c1=O` [Compound 101], the figure is 70 nM.
